In US12403128B2, “Compositions and methods for blocking sodium channels” (University of Virginia Patent Foundation, priority 2017, dated 2025):
Values after ≈ are worked out from the molar mass of the structure shown. Where a name gives a salt, the structure may show the parent alone.

How the values were obtained:
Nav1.6 [1] = biological target: T1, Nav1.6 (Homo sapiens, UniProt Q9UQD0); assay: % block of Nav1.6 at 100 μM and IC50 (NaV1.6); assay type: cell-based; conditions: for inhibition at 100 µM: 100 μM compound
Method: Evaluation of Compounds for % Block of Nav1.6 at 100 μM
Compounds of the present invention were tested in an assay for % block of Nav1.6 at a concentration of 100 μM compound. Table 1 also indicates the melting point ranges for some compounds.
Some such compounds correspond to a compound of Formula III, wherein R9 is substituted with a halogen, a nitro or a CF3 group. In comparing MV1089, MV1090 and MV1091, it is shown that compounds of Formula III where R3 is H result in higher % block than when R3 is substituted. e.g., by OCH3. In comparing MV1066, MV1084, MV1085, MV1086, MV1087 and MV1088, it is shown that compounds of Formula III where R9 is halogen, a nitro or a CF3 group result in higher % block than when R9 is OCH3, COOH or CH3.

[2] = tested on: maximal electroshock (MES) seizures; assay: MES (maximal electroshock) test, mice; assay type: in vivo; conditions: Mus musculus, mice
From the text: Evaluation of Compounds in MES Models of Seizures. […] These seizures are highly reproducible and are electrophysiologically consistent with human seizures. […] Abolition of the hindleg tonic extensor component of the seizure was used as the endpoint.

[3] = tested on: maximal electroshock (MES) seizures; assay: MES (maximal electroshock) test, rats; assay type: in vivo; conditions: Rattus norvegicus, rats
From the text: Evaluation of Compounds in MES Models of Seizures. The MES is a model for generalized tonic-clonic seizures and provides an indication of a compound's ability to prevent seizure spread when all neuronal circuits in the brain are maximally active. These seizures are highly reproducible and are electrophysiologically consistent with human seizures. […] Abolition of the hindleg tonic extensor component of the seizure was used as the endpoint.

[4] = tested on: Metrazol-induced clonic seizures; assay: scM (subcutaneous Metrazol) test, mice; assay type: in vivo; conditions: Mus musculus, mice
Method: (§1) Evaluation of Compounds in scM Models of Seizures. Subcutaneous injection of the convulsant Metrazol produces clonic seizures in laboratory animals. […] Animals may be pretreated with various doses of the test compound given by ip injection. At a previously determined TPE (time to peak) of the test compound, the dose of Metrazol which will induce convulsions in 97% of animals (CD97:85 mg/kg mice) may be injected into a loose fold of skin in the midline of the neck. The animals may be placed in isolation cages to minimize stress and observed for the next 30 min for the presence or absence of a seizure. An episode of clonic spasms, approximately 3-5 seconds, of the fore and/or hindlimbs, jaws, or vibrissae may be taken as the endpoint. […] The scM test represents acute animal seizures.

[5] = tested on: Metrazol-induced clonic seizures; assay: scM (subcutaneous Metrazol) test, rats; assay type: in vivo; conditions: Rattus norvegicus, rats
Method: as §1

[6] = tested on: 6 Hz psychomotor seizures; assay: 6 Hz psychomotor seizure test, mice; assay type: in vivo; conditions: Mus musculus, IP
Method: Evaluation of Compounds in 6 Hz Pyschomotor Seizure Test
(§2) Compounds were tested using a 6 Hz psychomotor seizure test. […] For example, both the MES and scM models are insensitive to levetiracetam, a compound considered potentially useful in the management of refractory seizures. […] Thus, the 6 Hz test can serve as a therapy resistant screening paradigm of acute seizure activity.

[7] = tested on: corneal kindled mice seizures; assay: Corneal kindled mice model; assay type: in vivo; conditions: for Avg. Score / N/F (animals active over number tested): TPE 0.5 hours
Method: Evaluation of Compounds in Corneal Kindled Mice Model.
Corneal kindled mice are kindled electrically via 3 second stimulation at 8 mA, 60 Hz through corneal electrodes to produce 10 consecutive stage […] seizures according to the Racine scale. Animals are defined as kindled once they progress to a reproducible stage 5 seizure. 72 hours after the mice have been kindled the test substance is administered and, according to a previously determined TPE (time to peak), the animals are electrically stimulated. The animals are considered protected when displaying a stage 3, or lower, seizure.

[8] = Behavioral toxicity (TOX, TD50), rats; assay type: in vivo; conditions: rat, in vivo
in vivo = conditions: mouse
Solubility = assay type: physicochemical
Chemical stability = assay type: physicochemical; conditions: after 24 h at pH 7.4
CYP3A4 = CYP3A4 (Homo sapiens, UniProt P08684); assay: Metabolic stability (CYP3A4); assay type: in vitro ADME; conditions: CYP3A4, 1 hr
Sequence of CYP3A4 (P08684 whole entry, species assumed): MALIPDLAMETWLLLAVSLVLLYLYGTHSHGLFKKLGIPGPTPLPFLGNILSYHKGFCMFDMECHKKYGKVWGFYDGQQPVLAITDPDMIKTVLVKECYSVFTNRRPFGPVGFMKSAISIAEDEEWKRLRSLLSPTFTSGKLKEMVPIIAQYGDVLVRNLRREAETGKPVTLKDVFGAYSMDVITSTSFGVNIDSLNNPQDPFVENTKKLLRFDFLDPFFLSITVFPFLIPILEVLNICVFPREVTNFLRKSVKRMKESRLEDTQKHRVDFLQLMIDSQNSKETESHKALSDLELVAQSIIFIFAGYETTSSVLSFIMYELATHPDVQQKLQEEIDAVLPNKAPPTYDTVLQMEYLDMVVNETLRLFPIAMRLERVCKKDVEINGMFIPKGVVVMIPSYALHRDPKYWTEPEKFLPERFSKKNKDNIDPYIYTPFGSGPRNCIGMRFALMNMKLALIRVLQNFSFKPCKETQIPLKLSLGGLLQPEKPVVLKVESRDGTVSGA

[9] = tested on: maximal electroshock (MES) seizures; assay: MES test, comparison compounds (species not stated); assay type: in vivo
From the text: The MES is a model for generalized tonic-clonic seizures and provides an indication of a compound's ability to prevent seizure spread when all neuronal circuits in the brain are maximally active. These seizures are highly reproducible and are electrophysiologically consistent with human seizures. For an MES test, a drop of anesthetic/electrolyte solution (0.5% tetracaine hydrochloride in 0.9% saline) is applied to the eyes of each animal prior to placement of corneal electrodes Electrical stimulus in the MES test may be 50 mA, 60 Hz, for mice and 150 mA, 60 Hz, for rats delivered for 0.2 s. Abolition of the hindleg tonic extensor component of the seizure was used as the endpoint. Mice may be initially tested at various intervals following various doses, e.g., 30, 100 and 300 mg/kg of test compound given by intraperitoneal (IP) injection while rats are initially screened at a fixed dose of 30 mg/kg

[10] = tested on: Metrazol-induced clonic seizures; assay: scM test, comparison compounds (species not stated); assay type: in vivo
Method: as §1, with “Subcutaneous” for “Evaluation of Compounds in scM Models of Seizures. Subcutaneous”

[11] = tested on: 6 Hz psychomotor seizures; assay: 6 Hz test, comparison compounds (species not stated); assay type: in vivo; conditions: species and current not stated
Method: as §2

[12] = Tox, comparison compounds (species not stated); assay type: in vivo
[13] = biological target: T2, rat NaV1.6 sodium channels (Rattus norvegicus, UniProt O88420); assay: Dose response on rat NaV1.6 channels in HEK293 cells; assay type: cell-based; conditions: rat Nav1.6 channel
T2 construct: expressed in transfected cells; host or cells: HEK293
From the text: Evaluation of Dose Response and Activation Response Compounds on Rat NaV1.6 Channels in Human Embryonic Kidney Cells (HEK293).

NaV1.6 sodium channels = NaV1.6 sodium channels (Homo sapiens, UniProt Q9UQD0); assay: State-dependent inhibition: steady state inactivation, use-dependent block; assay type: cell-based; conditions: for use-dependent block: 20 Hz
From the text: Evaluation of Compounds as State-Dependent Inhibitors
Use dependent block is an important characteristic for AED activity since it allows increased inhibition of sodium channels during increased neuronal activity as is observed during seizures.

Nav1.6 [14] = biological target: T1, Nav1.6; assay: High-throughput flux assay, Nav1.6; assay type: cell-based; conditions: human isoform;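 further: IC50 from the flux assay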
Method: (§3) Evaluation of Compounds on Human Isoforms Using a High-Throughput Flux Assay
(§4) Compounds were tested using a high-throughput flux assay across Nav1.5, Nav1.6 and Nav1.7.

NaV1.5 [15] = biological target: T3, NaV1.5 (Homo sapiens, UniProt Q14524); assay: High-throughput flux assay, NaV1.5; assay type: cell-based; conditions: human isoform;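 further: IC50 from the flux assay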
T3 sequence (Q14524 whole entry, canonical isoform): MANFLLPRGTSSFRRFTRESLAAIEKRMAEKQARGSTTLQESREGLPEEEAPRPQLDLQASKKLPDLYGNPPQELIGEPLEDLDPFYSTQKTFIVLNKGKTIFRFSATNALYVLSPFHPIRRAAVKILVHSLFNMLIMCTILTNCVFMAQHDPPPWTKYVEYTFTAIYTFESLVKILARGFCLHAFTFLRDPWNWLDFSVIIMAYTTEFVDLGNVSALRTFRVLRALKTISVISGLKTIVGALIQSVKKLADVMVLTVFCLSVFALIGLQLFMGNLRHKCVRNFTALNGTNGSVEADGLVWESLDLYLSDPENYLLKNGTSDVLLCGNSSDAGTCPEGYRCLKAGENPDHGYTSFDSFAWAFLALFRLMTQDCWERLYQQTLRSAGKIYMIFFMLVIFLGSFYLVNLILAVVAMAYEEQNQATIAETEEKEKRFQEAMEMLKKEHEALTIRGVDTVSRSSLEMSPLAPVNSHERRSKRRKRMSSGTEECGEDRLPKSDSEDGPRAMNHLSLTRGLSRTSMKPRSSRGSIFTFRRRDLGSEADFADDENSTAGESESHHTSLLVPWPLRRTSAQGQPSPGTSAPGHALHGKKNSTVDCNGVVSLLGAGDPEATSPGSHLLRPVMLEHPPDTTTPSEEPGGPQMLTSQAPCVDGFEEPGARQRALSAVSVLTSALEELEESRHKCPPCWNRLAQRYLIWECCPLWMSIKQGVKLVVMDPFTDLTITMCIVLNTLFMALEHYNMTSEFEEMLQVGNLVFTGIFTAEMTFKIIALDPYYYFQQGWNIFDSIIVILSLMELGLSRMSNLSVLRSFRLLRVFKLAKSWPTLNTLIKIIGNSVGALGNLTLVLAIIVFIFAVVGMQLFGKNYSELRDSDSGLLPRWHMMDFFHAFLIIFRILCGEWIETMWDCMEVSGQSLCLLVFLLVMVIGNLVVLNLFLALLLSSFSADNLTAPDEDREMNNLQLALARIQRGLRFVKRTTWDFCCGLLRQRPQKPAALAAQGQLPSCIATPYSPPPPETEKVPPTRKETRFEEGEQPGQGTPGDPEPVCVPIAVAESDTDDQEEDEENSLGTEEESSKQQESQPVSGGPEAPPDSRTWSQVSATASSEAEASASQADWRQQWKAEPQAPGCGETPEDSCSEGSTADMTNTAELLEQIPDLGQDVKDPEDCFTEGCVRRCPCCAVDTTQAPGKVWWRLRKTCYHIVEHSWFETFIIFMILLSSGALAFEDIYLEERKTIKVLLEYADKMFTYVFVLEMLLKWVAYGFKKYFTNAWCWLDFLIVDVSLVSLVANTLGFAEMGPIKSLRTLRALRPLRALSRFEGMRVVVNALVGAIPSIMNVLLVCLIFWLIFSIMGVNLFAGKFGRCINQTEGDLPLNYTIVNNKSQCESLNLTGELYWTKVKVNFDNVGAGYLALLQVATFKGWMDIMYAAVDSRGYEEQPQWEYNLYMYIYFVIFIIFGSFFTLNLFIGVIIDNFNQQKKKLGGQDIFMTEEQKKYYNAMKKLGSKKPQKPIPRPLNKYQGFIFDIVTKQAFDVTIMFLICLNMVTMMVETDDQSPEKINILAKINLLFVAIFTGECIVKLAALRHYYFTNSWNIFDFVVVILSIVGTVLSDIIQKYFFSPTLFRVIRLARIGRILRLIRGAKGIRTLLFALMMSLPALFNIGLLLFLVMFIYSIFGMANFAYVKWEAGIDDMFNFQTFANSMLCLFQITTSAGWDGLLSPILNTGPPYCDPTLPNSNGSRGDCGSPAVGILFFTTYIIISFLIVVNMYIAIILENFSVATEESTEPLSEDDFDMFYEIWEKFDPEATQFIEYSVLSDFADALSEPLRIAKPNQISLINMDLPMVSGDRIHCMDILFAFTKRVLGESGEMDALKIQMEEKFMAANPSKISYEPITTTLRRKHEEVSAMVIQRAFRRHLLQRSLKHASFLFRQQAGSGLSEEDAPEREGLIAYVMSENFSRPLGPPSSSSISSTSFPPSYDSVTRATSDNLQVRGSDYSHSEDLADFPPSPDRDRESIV
Method: as §3, §4

NaV1.7 [16] = biological target: T4, NaV1.7 (Homo sapiens, UniProt Q15858); assay: High-throughput flux assay, NaV1.7; assay type: cell-based; conditions: human isoform;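 further: IC50 from the flux assay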
T4 sequence (Q15858 whole entry, canonical isoform): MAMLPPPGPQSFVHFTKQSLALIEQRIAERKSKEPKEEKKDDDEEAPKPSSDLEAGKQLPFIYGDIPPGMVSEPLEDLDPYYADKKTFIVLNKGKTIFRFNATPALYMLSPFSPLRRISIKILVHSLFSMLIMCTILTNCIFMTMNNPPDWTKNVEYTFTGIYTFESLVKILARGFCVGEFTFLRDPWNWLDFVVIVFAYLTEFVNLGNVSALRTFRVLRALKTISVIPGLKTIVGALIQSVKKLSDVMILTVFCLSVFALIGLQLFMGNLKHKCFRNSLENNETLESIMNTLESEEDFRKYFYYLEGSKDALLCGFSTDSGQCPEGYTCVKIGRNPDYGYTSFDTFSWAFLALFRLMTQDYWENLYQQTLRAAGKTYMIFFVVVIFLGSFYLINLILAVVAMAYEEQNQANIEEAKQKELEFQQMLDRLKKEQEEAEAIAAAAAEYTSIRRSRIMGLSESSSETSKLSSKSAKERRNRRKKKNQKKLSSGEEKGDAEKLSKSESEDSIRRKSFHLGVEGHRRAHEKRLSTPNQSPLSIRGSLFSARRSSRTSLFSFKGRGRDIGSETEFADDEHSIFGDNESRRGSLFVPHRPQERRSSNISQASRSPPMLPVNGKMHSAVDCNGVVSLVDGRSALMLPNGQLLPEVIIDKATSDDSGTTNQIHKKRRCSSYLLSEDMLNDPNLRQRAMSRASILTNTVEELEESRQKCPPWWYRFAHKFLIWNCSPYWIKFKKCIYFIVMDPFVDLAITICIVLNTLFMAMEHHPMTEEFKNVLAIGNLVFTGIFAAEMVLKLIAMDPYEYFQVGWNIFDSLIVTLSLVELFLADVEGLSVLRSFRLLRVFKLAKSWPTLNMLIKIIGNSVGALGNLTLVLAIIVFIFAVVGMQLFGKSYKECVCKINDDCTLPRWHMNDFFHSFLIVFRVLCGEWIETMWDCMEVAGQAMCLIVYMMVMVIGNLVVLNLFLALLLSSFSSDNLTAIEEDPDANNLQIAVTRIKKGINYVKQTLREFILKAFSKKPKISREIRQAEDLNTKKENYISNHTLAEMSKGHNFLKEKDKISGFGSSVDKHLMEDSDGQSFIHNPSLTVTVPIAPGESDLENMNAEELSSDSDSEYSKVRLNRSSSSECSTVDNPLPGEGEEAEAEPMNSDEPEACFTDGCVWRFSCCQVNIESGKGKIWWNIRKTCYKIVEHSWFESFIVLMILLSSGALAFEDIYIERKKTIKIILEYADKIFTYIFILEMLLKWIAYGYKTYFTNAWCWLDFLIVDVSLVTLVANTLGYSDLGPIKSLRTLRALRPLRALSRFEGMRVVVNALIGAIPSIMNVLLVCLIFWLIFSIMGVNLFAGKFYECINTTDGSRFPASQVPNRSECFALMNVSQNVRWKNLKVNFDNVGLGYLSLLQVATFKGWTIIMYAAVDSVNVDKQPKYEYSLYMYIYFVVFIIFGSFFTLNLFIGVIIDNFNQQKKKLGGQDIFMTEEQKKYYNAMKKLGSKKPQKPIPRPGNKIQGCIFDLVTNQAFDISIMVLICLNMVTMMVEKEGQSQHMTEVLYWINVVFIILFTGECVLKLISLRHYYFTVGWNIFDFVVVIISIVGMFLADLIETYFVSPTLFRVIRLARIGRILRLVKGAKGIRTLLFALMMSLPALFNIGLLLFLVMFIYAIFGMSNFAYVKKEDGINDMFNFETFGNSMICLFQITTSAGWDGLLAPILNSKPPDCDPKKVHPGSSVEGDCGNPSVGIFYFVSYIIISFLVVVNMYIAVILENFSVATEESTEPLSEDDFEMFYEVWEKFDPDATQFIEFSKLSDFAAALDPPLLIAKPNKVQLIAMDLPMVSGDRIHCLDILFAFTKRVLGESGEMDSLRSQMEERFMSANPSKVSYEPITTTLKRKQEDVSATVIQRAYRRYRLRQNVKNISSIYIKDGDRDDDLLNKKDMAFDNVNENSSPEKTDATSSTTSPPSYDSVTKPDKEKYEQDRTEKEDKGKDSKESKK
Method: as §3, §4

Nav1.6 [17] = biological target: T1, Nav1.6; assay: Qube assay, NaV1.6; assay type: cell-based; conditions: human isoform; read-out: Qube EP IC50 NaV1.6
Method: (§5) Evaluation of Compounds on Human Isoforms Using Qube Assay.
(§6) Compounds were tested using a Qube assay across NaV1.5, NaV1.6 and NaV1.7.

NaV1.5 [18] = biological target: T3, NaV1.5; assay: Qube assay, NaV1.5; assay type: cell-based; conditions: human isoform; read-out: Qube EP IC50 NaV1.5
Method: as §5, §6

NaV1.7 [19] = biological target: T4, NaV1.7; assay: Qube assay, NaV1.7; assay type: cell-based; conditions: human isoform; read-out: Qube EP IC50 NaV1.7
Method: as §5, §6

[20] = tested on: knock-in mouse carrying the human N1768D gain of function NaV1.6 mutation (spontaneous seizures); assay: Seizure suppression in NaV1.6 mutation knock-in mouse model; assay type: in vivo; conditions: 100 mg/kg
Method: In Vivo Evaluation for Seizure Suppression in a Human Gain of Function NaV1.6 Mutation Knock-In Mouse Model.
Compounds were tested in vivo for seizure suppression in a knock-in mouse carrying the human N1768D gain of function NaV1.6 mutation. These knock-in mice experience spontaneous seizures. All test compounds were evaluated at 100 mg/kg.

## COc1ccc(-c2nc3ccccc3[nH]2)cc1 [MV1062, 2-(4-methoxyphenyl)-1H-1,3-benzodiazole]
Nav1.6 [1]
  inhibition at 100 µM: 70%
Nav1.6 [1]; NaV1.6, Table 2, MV1060-MV1091, unit inferred, read-out: IC50
  IC50: 90.2 µM
[2]; IP, Table 14, read-out: MES ED50
  ED50: 30.8 mg/kg
[2]; read-out: ED50 (MES test)
  ED50: 30.8 mg/kg
[3]; IP, Table 15, read-out: MES ED50
  ED50: 10.8 mg/kg
[3]; read-out: ED50 (MES test)
  ED50: 10.8 mg/kg
[4]; sc, read-out: ED50 (scM test)
  ED50: 206 mg/kg
[4]; IP, Table 14, read-out: sCM ED50
  ED50: 206 mg/kg
[5]; sc, read-out: ED50 (scM test)
  ED50: 123 mg/kg
[5]; IP, Table 15, read-out: sCM ED50
  ED50: 122 mg/kg
[6]; 32 mA, Table 14, read-out: 6 Hz (32 mA) ED50
  ED50: 69.6 mg/kg
[6]; (14 mA) [sic], Table 14, read-out: 6 Hz (14 mA) ED50
  ED50: 80.5 mg/kg
[7]; 20 mg/kg
  Avg. Score: 5.0
  N/F (animals active over number tested): 0/8
[7]; 55 mg/kg
  Avg. Score: 4.0
  N/F (animals active over number tested): 3/8
[7]; 100 mg/kg
  Avg. Score: 1.375
  N/F (animals active over number tested): 7/8
[7]; Mus musculus
  ED50: 63.6 mg/kg
[8]; IP, Table 15, read-out: TOX TD50
  TD50: > 500 mg/kg
[8]; read-out: TD50 (behavioral toxic dose)
  TD50: > 500 mg/kg
In vivo
  TD50: 601 mg/kg
In vivo; ip
  TD50: 601 mg/kg

## c1ccc(-c2c[nH]c(-c3ccccc3)n2)cc1 [MV1115]
Nav1.6 [1]; comparison compounds, read-out: IC50 (NaV1.6)
  IC50: 32 µM
Solubility; pH 3, aqueous buffer
  solubility: 237 µM (≈ 52.2 µg/mL)
Solubility; pH 7.4, aqueous buffer
  solubility: 175 µM (≈ 38.5 µg/mL)
Chemical stability
  recovery at 24 h: 94%
CYP3A4
  recovery at 1 hr: 87%
[9]
  ED50: 61.7 mg/kg
[10]
  ED50: 160 mg/kg
[11]
  ED50: 47.2 mg/kg
[12]
  Tox: 126 mg/kg

## COc1ccc(-c2nc(-c3ccccc3)c[nH]2)cc1 [MV1118]
[9]
  ED50: 46.8 mg/kg
[10]
  ED50: 142 mg/kg
[11]
  ED50: 52.2 mg/kg
[12]
  Tox: 223 mg/kg

## Cc1nc(-c2ccc(Cl)cc2)[nH]c1-c1ccccc1 [MV1502, 2-(4-chlorophenyl)-4-methyl-5-phenyl-1H-imidazole hydrochloride]
Nav1.6 [1]
  inhibition at 100 µM: 95%
[13]
  IC50: 1.2 µM
NaV1.6 sodium channels; 1 μM
  shift of half maximal voltage for inactivation (V1/2) compared to control: −9.3 mV
Nav1.6 [14]
  IC50: 1610 nM
NaV1.5 [15]
  IC50: 4.89 µM
NaV1.7 [16]
  IC50: 4.76 µM
Nav1.6 [17]
  IC50: 749 nM
NaV1.5 [18]
  IC50: 12.7 µM
NaV1.7 [19]
  IC50: 3.88 µM
[20]
  seizure suppression: suppressed seizures

## Cc1nc(-c2cccc(C(F)(F)F)c2)[nH]c1-c1ccccc1 [MV1504, 4-methyl-5-phenyl-2-[3-(trifluoromethyl)phenyl]-1H-imidazole hydrochloride]
Nav1.6 [1]
  inhibition at 100 µM: 100%
[13]
  IC50: 12 µM
NaV1.6 sodium channels; 10 μM
  shift of half maximal voltage for inactivation (V1/2) compared to control: −10.9 mV
NaV1.6 sodium channels
  use-dependent block: profound use-dependent block
Nav1.6 [14]
  IC50: 2070 nM
NaV1.5 [15]
  IC50: 4.32 µM
NaV1.7 [16]
  IC50: 5.72 µM
Nav1.6 [17]
  IC50: 3320 nM
NaV1.5 [18]
  IC50: 13.3 µM
NaV1.7 [19]
  IC50: 7.95 µM
[20]
  seizure suppression: suppressed seizures

## Cc1nc(-c2cccc(Cl)c2)[nH]c1-c1ccccc1 [MV1505, 2-(3-chlorophenyl)-4-methyl-5-phenyl-1H-imidazole]
Nav1.6 [1]
  inhibition at 100 µM: 100%
[13]
  IC50: 5.4 µM
NaV1.6 sodium channels; 10 μM
  shift of half maximal voltage for inactivation (V1/2) compared to control: −12.7 mV
NaV1.6 sodium channels
  use-dependent block: profound use-dependent block
Nav1.6 [14]
  IC50: 1590 nM
NaV1.5 [15]
  IC50: 3.64 µM
NaV1.7 [16]
  IC50: 5.22 µM
Nav1.6 [17]
  IC50: 2720 nM
NaV1.5 [18]
  IC50: 10 µM
NaV1.7 [19]
  IC50: 8.04 µM
[20]
  seizure suppression: suppressed seizures
